ChEMBL document CHEMBL1201862, “PubChem BioAssay data set” (2004)
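Each compound was tested at five concentrations against cells in 96-well plates for 48 hours. Here, GI50 denotes the concentration required for 50% inhibition of growth.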 Activity calls are given as the source filed them. No stated cut-off is given here; in the data, active = GI50 up to about 1.1 µM and inactive = higher.

What was measured:
Assay in all cases: DTP human tumour cell line panel, 48 h
[1] = tested on: 786-0
[2] = tested on: A498
[3] = tested on: CAKI-1
[4] = tested on: CCRF-CEM
[5] = tested on: DU-145
[6] = tested on: HCC 2998
[7] = tested on: HCT-116
[8] = tested on: HOP-62
[9] = tested on: Hs-578T
[10] = tested on: LOX IMVI
[11] = tested on: MDA-MB-231
[12] = tested on: MDA-MB-435
[13] = tested on: NCI-H23
[14] = tested on: OVCAR-4
[15] = tested on: PC-3
[16] = tested on: RPMI-8226
[17] = tested on: SF-539
[18] = tested on: SNB-19
[19] = tested on: SR
[20] = tested on: U-251

O=C1C(CO)=C(CO)C(=O)c2c(O)ccc(O)c21
GI50 [1]: 0.361 µM (active)
GI50 [2]: 1.69 µM (inactive)
GI50 [3]: 0.387 µM (active)
GI50 [4]: 0.0575 µM (active)
GI50 [5]: 1.85 µM (inactive)
GI50 [6]: 2.06 µM (inactive)
GI50 [7]: 0.218 µM (active)
GI50 [8]: 1.04 µM (active)
GI50 [9]: 1.45 µM (inactive)
GI50 [10]: 0.252 µM (active)
GI50 [11]: 1.35 µM (inactive)
GI50 [12]: 0.472 µM (active)
GI50 [13]: 0.389 µM (active)
GI50 [14]: 0.234 µM (active)
GI50 [15]: 1.97 µM (inactive)
GI50 [16]: 0.117 µM (active)
GI50 [17]: 0.705 µM (active)
GI50 [18]: 2.88 µM (inactive)
GI50 [19]: 0.0902 µM (active)
GI50 [20]: 2.22 µM (inactive)

NC(=O)C(=CNC(N)=S)C(N)=O
GI50 [1]: > 100 µM (inactive)
GI50 [2]: > 100 µM (inactive)
GI50 [3]: > 100 µM (inactive)
GI50 [4]: > 100 µM (inactive)
GI50 [5]: > 100 µM (inactive)
GI50 [6]: > 100 µM (inactive)
GI50 [7]: > 100 µM (inactive)
GI50 [8]: > 100 µM (inactive)
GI50 [9]: > 100 µM (inactive)
GI50 [10]: > 100 µM (inactive)
GI50 [11]: > 100 µM (inactive)
GI50 [12]: > 100 µM (inactive)
GI50 [13]: > 100 µM (inactive)
GI50 [14]: > 100 µM (inactive)
GI50 [15]: > 100 µM (inactive)
GI50 [16]: > 100 µM (inactive)
GI50 [17]: > 100 µM (inactive)
GI50 [18]: > 100 µM (inactive)
GI50 [19]: > 100 µM (inactive)
GI50 [20]: > 100 µM (inactive)
